Counter-ions that a name gives are not always drawn.

Common to all, as to type: in vivo
One series concerns mouse. Nature of the series: in vivo. Conditions: for LD50: mouse, i.v., administered as hydrochloride, observed for 24 hrs, 1440 min; for Therapeutic Index LD50/ED50: ratio of LD50 (mouse, i.v.) to ED50 (guinea pig local infiltration). An excerpt:
(§1) Toxicity study in mouse has been performed by intravenous administration.

Series [1] relates to cutaneous reflex after stimulation (guinea-pig back). The series can be described thus: Local anesthetic activity, intradermal infiltration in the back of guinea-pig (Bulbring and Wayda). Conditions: drug concentration inhibiting 50% of the occurence of the cutaneous reflex, 95% c.l. in parentheses.
Another series is described as follows: in vivo. Conditions: in vivo, iv.
Description: as §1

As for `CC(COc1ccccc1)N[C@@H](CO)[C@@H](O)c1ccc(S(C)(=O)=O)cc1` (relative stereo) [Z. 1402, (1S,2S)-1-(4-methylsulfonylphenyl)-2-(1-methyl-2-phenoxyethylamino)-1,3-propanediol], in the series on mouse, the LD50 came out at 0.30 mmols/kg/iv and the “Therapeutic Index LD50/ED50” value is listed as 4. Further, in series [1], the “LOCAL ANESTHETIC ACTIVITY ED50 (c.l. 95%)” value was 0.075 (0.05-0.1) mM.
With `CC(COc1ccccc1)N[C@@H](CO)[C@@H](O)c1ccc(S(C)(=O)=O)cc1` (relative stereo) [Z. 1403, (1S,2S)-1-(4-methylsulfonylphenyl)-2-(1-methyl-2-phenoxyethylamino)-1,3-propanediol], in the series with mouse, the LD50 is recorded as 0.80 mmols/kg/iv and the “Therapeutic Index LD50/ED50” value turned out to be 16. Besides, the “LOCAL ANESTHETIC ACTIVITY ED50 (c.l. 95%)” value in series [1] was 0.049 mM.
For `CCN(CC)CCOC(=O)c1ccc(N)cc1` [Procaine, reference compound], the “LOCAL ANESTHETIC ACTIVITY ED50 (c.l. 95%)” value in series [1] was 2.3 (1.7-3.1) mM.
Take `CS(=O)(=O)c1ccc([C@H](O)[C@H](CO)NCCC(c2ccccc2)c2ccccc2)cc1` [Z. 1396]: the selectivity ratio in the series “in vivo” (ratio of LD50 (mouse, i.v.) to ED50 (guinea pig local infiltration), read-out: Therapeutic Index LD50/ED50) is 0.5. In the series “in vivo” (mouse, administered as hydrochloride, observed for 24 hrs), the LD50 at 24 h came to 160 µmol/kg. In addition, in series [1], the “LOCAL ANESTHETIC ACTIVITY ED50 (c.l. 95%)” value was 0.36 (0.21-0.60) mM.
As to `CS(=O)(=O)c1ccc([C@@H](O)[C@@H](CO)NCCC(c2ccccc2)c2ccccc2)cc1` [Z. 1395, (1R,2R)-1-(4-methylsulfonylphenyl)-2-(3,3-diphenylpropylamino)-1,3-propanediol maleate acid], the “LOCAL ANESTHETIC ACTIVITY ED50 (c.l. 95%)” value in series [1] is 0.73 (0.57-0.94) mM.
On to `CCN(CC)CC(=O)Nc1c(C)cccc1C` [Lidocaine, reference compound], for which the “LOCAL […] ED50 (c.l. 95%)” value in series [1] is on record as 0.49 (0.34-0.71) mM.

For the origin of these results see patent US4632940A, “N-substituted 1-(4'-alkylsulfonylphenyl)-2-amino-1,3-propanediols, pharmaceutical compositions containing them, having local anesthetic activity” (Zambon S.p.A., priority 1983, dated 1986).
